# Test results as given in patent US8455475B2 (Gruenenthal GmbH, priority 2009, dated 2013).
# Biological target: T1, rat B1R (bradykinin receptor 1) (Rattus norvegicus, UniProt P97583)
# T1 construct: expressed in transfected cells; host or cells: CHO K1 cells
# T1 sequence (P97583 1-337): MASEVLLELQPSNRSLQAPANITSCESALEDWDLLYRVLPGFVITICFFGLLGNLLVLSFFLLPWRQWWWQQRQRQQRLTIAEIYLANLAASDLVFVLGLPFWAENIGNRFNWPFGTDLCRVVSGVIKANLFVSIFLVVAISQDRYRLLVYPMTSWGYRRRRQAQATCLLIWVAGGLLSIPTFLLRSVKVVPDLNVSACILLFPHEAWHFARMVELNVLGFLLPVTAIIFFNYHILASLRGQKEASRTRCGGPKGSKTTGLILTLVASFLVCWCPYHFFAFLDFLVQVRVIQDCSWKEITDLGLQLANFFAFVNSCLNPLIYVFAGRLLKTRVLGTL
# Test: FLIPR Ca2+ assay (Fluo-4) on CHO K1 cells stably transfected with the B1R gene of the rat (rB1R cells): % inhibition at 10 μM / IC50, agonist Des-Arg9-bradykinin
# Assay type: cell-based
# Conditions: CHO-K1, rat B1R
# Procedure, shortened: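 Loading with Fluo-4 occurs for 60 min at 37 °C, or alternatively in buffer A, before FLIPR measurement. Compounds are applied, incubated 10–20 min, and then the EC80 agonist is added. Antagonism appears as reduced peak Ca2+ signal relative to maximal inhibition.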
row,SMILES,inhibition at 10 µM [%]
1,"O=C(NC1CCc2ccc(C(=O)N3CCC4(CCN(CCCc5ccc(F)cc5)CC4)C3)cc21)c1cc(Cl)ccc1F (stereo not shown) [IND_CC-675, 5-Chloro-2-fluoro-N-[6-[8-[3-(4-fluorophenyl)-propyl]-2,8-diazaspiro[4.5]decane-2-carbonyl]-2,3-dihydro-1H-inden-1-yl]-benzamide]",87
2,"CN(C)c1ncc(CN2CCC3(CC2)CCN(C(=O)c2ccc4c(c2)C(NC(=O)c2cc(Cl)ccc2F)CC4)CC3)cn1 (stereo not shown) [IND_CC-676, 5-Chloro-N-[6-[9-[(2-dimethylamino-pyrimidin-5-yl)-methyl]-3,9-diazaspiro-[5.5]undecane-3-carbonyl]-2,3-dihydro-1H-inden-1-yl]-2-fluoro-benzamide]",74
3,"O=C(NC1CCc2ccc(C(=O)N3CCC4(CCN(Cc5ccc6ncccc6c5)CC4)CC3)cc21)c1cc(Cl)ccc1F (stereo not shown) [IND_CC-677, 5-Chloro-2-fluoro-N-[6-[9-(quinolin-6-yl-methyl)-3,9-diazaspiro[5.5]undecane-3-carbonyl]-2,3-dihydro-1H-inden-1-yl]-benzamide]",72
4,"O=C(NC1CCc2ccc(C(=O)N3CCC4(CCN(Cc5ccc6nccnc6c5)CC4)CC3)cc21)c1cc(Cl)ccc1F (stereo not shown) [IND_CC-678, 5-Chloro-2-fluoro-N-[6-[9-(quinoxalin-6-yl-methyl)-3,9-diazaspiro[5.5]undecane-3-carbonyl]-2,3-dihydro-1H-inden-1-yl]-benzamide]",82
5,"Cn1nnc2cc(CN3CCC4(CC3)CCN(C(=O)c3ccc5c(c3)C(NC(=O)c3cc(Cl)ccc3F)CC5)CC4)ccc21 (stereo not shown) [IND_CC-679, 5-Chloro-2-fluoro-N-[6-[9-[(1-methyl-1H-benzotriazol-5-yl)-methyl]-3,9-diazaspiro[5.5]undecane-3-carbonyl]-2,3-dihydro-1H-inden-1-yl]-benzamide]",82
6,"CC(C)CN1CCC2(CC1)CCN(C(=O)c1ccc3c(c1)C(NC(=O)c1cc(Cl)ccc1F)CC3)CC2 (stereo not shown) [IND_CC-680, 5-Chloro-2-fluoro-N-[6-[9-(2-methyl-propyl)-3,9-diazaspiro[5.5]undecane-3-carbonyl]-2,3-dihydro-1H-inden-1-yl]-benzamide]",54
7,"O=C(NC1CCc2ccc(C(=O)N3CCC4(CCN(CCc5ccccc5)CC4)CC3)cc21)c1cc(Cl)ccc1F (stereo not shown) [IND_CC-681, 5-Chloro-2-fluoro-N-[6-(9-phenethyl-3,9-diazaspiro[5.5]undecane-3-carbonyl)-2,3-dihydro-1H-inden-1-yl]-benzamide]",53
8,"Cc1nn(C)c(C)c1CN1CCC2(CC1)CCN(C(=O)c1ccc3c(c1)C(NC(=O)c1cc(C(F)(F)F)ccc1Cl)CC3)C2 (stereo not shown) [IND_CC-682, 2-Chloro-5-(trifluoromethyl)-N-[6-[8-[(1,3,5-trimethyl-1H-pyrazol-4-yl)-methyl]-2,8-diazaspiro[4.5]decane-2-carbonyl]-2,3-dihydro-1H-inden-1-yl]-benzamide]",51
9,"CN(C)c1ncc(CN2CCC3(CC2)CCN(C(=O)c2ccc4c(c2)C(NC(=O)c2cc(C(F)(F)F)ccc2Cl)CC4)C3)cn1 (stereo not shown) [IND_CC-683, 2-Chloro-N-[6-[8-[(2-dimethylamino-pyrimidin-5-yl)-methyl]-2,8-diazaspiro[4.5]-decane-2-carbonyl]-2,3-dihydro-1H-inden-1-yl]-5-(trifluoromethyl)-benzamide]",62
10,"O=C(NC1CCc2ccc(C(=O)N3CCC4(CCN(Cc5ccc6ncccc6c5)CC4)C3)cc21)c1cc(C(F)(F)F)ccc1Cl (stereo not shown) [IND_CC-684, 2-Chloro-N-[6-[8-(quinolin-6-yl-methyl)-2,8-diazaspiro[4.5]decane-2-carbonyl]-2,3-dihydro-1H-inden-1-yl]-5-(trifluoromethyl)-benzamide]",67
11,"O=C(NC1CCc2ccc(C(=O)N3CCC4(CCN(Cc5ccc6nccnc6c5)CC4)C3)cc21)c1cc(C(F)(F)F)ccc1Cl (stereo not shown) [IND_CC-685, 2-Chloro-N-[6-[8-(quinoxalin-6-yl-methyl)-2,8-diazaspiro[4.5]decane-2-carbonyl]-2,3-dihydro-1H-inden-1-yl]-5-(trifluoromethyl)-benzamide]",68
12,"Cn1nnc2cc(CN3CCC4(CC3)CCN(C(=O)c3ccc5c(c3)C(NC(=O)c3cc(C(F)(F)F)ccc3Cl)CC5)C4)ccc21 (stereo not shown) [IND_CC-686, 2-Chloro-N-[6-[8-[(1-methyl-1H-benzotriazol-5-yl)-methyl]-2,8-diazaspiro[4.5]-decane-2-carbonyl]-2,3-dihydro-1H-inden-1-yl]-5-(trifluoromethyl)-benzamide]",69
13,"CC(C)CN1CCC2(CC1)CCN(C(=O)c1ccc3c(c1)C(NC(=O)c1cc(C(F)(F)F)ccc1Cl)CC3)C2 (stereo not shown) [IND_CC-687, 2-Chloro-N-[6-[8-(2-methyl-propyl)-2,8-diazaspiro[4.5]decane-2-carbonyl]-2,3-dihydro-1H-inden-1-yl]-5-(trifluoromethyl)-benzamide]",76
14,"CCC(CC)CN1CCC2(CC1)CCN(C(=O)c1ccc3c(c1)C(NC(=O)c1cc(C(F)(F)F)ccc1Cl)CC3)C2 (stereo not shown) [IND_CC-688, 2-Chloro-N-[6-[8-(2-ethyl-butyl)-2,8-diazaspiro[4.5]decane-2-carbonyl]-2,3-dihydro-1H-inden-1-yl]-5-(trifluoromethyl)-benzamide]",88
15,"O=C(NC1CCc2ccc(C(=O)N3CCC4(CCN(CC5CCCCC5)CC4)C3)cc21)c1cc(C(F)(F)F)ccc1Cl (stereo not shown) [IND_CC-689, 2-Chloro-N-[6-[8-(cyclohexyl-methyl)-2,8-diazaspiro[4.5]decane-2-carbonyl]-2,3-dihydro-1H-inden-1-yl]-5-(trifluoromethyl)-benzamide]",55
16,"O=C(NC1CCc2ccc(C(=O)N3CCC4(CCN(CCc5ccccc5)CC4)C3)cc21)c1cc(C(F)(F)F)ccc1Cl (stereo not shown) [IND_CC-690, 2-Chloro-N-[6-(8-phenethyl-2,8-diazaspiro[4.5]decane-2-carbonyl)-2,3-dihydro-1H-inden-1-yl]-5-(trifluoromethyl)-benzamide]",85
17,"O=C(NC1CCc2ccc(C(=O)N3CCC4(CCN(CCCc5cccc(F)c5)CC4)C3)cc21)c1cc(C(F)(F)F)ccc1Cl (stereo not shown) [IND_CC-691, 2-Chloro-N-[6-[8-[3-(3-fluorophenyl)-propyl]-2,8-diazaspiro[4.5]decane-2-carbonyl]-2,3-dihydro-1H-inden-1-yl]-5-(trifluoromethyl)-benzamide]",95
18,"O=C(NC1CCc2ccc(C(=O)N3CCC4(CCN(CCCc5ccc(F)cc5)CC4)C3)cc21)c1cc(C(F)(F)F)ccc1Cl (stereo not shown) [IND_CC-692, 2-Chloro-N-[6-[8-[3-(4-fluorophenyl)-propyl]-2,8-diazaspiro[4.5]decane-2-carbonyl]-2,3-dihydro-1H-inden-1-yl]-5-(trifluoromethyl)-benzamide]",99
19,"CCn1cc(CN2CCC3(CC2)CCN(C(=O)c2ccc4c(c2)C(NC(=O)c2cc(C(F)(F)F)ccc2Cl)CC4)CC3)c(C)n1 (stereo not shown) [IND_CC-693, 2-Chloro-N-[6-[9-[(1-ethyl-3-methyl-1H-pyrazol-4-yl)-methyl]-3,9-diazaspiro[5.5]-undecane-3-carbonyl]-2,3-dihydro-1H-inden-1-yl]-5-(trifluoromethyl)-benzamide]",68
20,"CN(C)c1ncc(CN2CCC3(CC2)CCN(C(=O)c2ccc4c(c2)C(NC(=O)c2cc(C(F)(F)F)ccc2Cl)CC4)CC3)cn1 (stereo not shown) [IND_CC-694, 2-Chloro-N-[6-[9-[(2-dimethylamino-pyrimidin-5-yl)-methyl]-3,9-diazaspiro[5.5]-undecane-3-carbonyl]-2,3-dihydro-1H-inden-1-yl]-5-(trifluoromethyl)-benzamide]",100
21,"O=C(NC1CCc2ccc(C(=O)N3CCC4(CCN(Cc5ccc6ncccc6c5)CC4)CC3)cc21)c1cc(C(F)(F)F)ccc1Cl (stereo not shown) [IND_CC-695, 2-Chloro-N-[6-[9-(quinolin-6-yl-methyl)-3,9-diazaspiro[5.5]undecane-3-carbonyl]-2,3-dihydro-1H-inden-1-yl]-5-(trifluoromethyl)-benzamide]",100
22,"O=C(NC1CCc2ccc(C(=O)N3CCC4(CCN(Cc5ccc6nccnc6c5)CC4)CC3)cc21)c1cc(C(F)(F)F)ccc1Cl (stereo not shown) [IND_CC-696, 2-Chloro-N-[6-[9-(quinoxalin-6-yl-methyl)-3,9-diazaspiro[5.5]undecane-3-carbonyl]-2,3-dihydro-1H-inden-1-yl]-5-(trifluoromethyl)-benzamide]",102
23,"CC(C)CN1CCC2(CC1)CCN(C(=O)c1ccc3c(c1)C(NC(=O)c1cc(C(F)(F)F)ccc1Cl)CC3)CC2 (stereo not shown) [IND_CC-698, 2-Chloro-N-[6-[9-(2-methyl-propyl)-3,9-diazaspiro[5.5]undecane-3-carbonyl]-2,3-dihydro-1H-inden-1-yl]-5-(trifluoromethyl)-benzamide]",90
24,"CCC(CC)CN1CCC2(CC1)CCN(C(=O)c1ccc3c(c1)C(NC(=O)c1cc(C(F)(F)F)ccc1Cl)CC3)CC2 (stereo not shown) [IND_CC-699, 2-Chloro-N-[6-[9-(2-ethyl-butyl)-3,9-diazaspiro[5.5]undecane-3-carbonyl]-2,3-dihydro-1H-inden-1-yl]-5-(trifluoromethyl)-benzamide]",75
25,"O=C(NC1CCc2ccc(C(=O)N3CCC4(CCN(CC5CCCCC5)CC4)CC3)cc21)c1cc(C(F)(F)F)ccc1Cl (stereo not shown) [IND_CC-700, 2-Chloro-N-[6-[9-(cyclohexyl-methyl)-3,9-diazaspiro[5.5]undecane-3-carbonyl]-2,3-dihydro-1H-inden-1-yl]-5-(trifluoromethyl)-benzamide]",64
